Source: patent US8080115B2, “Method for the surface treatment of a metallic or fibrous material” (priority 2005, dated 2011)

Legend:
[1] = Risks of harmfulness for the aquatic environment / bioaccumulation; set-up: key: −=harmful demonstrated; +=slight risk; ++=very slight risks
Description: For each of Compositions A to E, the characteristics of odor (“ODOR”), of stability at alkaline pH, i.e. at a pH of 9 (“STAB.”) and of risks of harmfulness in terms of protection of the aquatic environment/bioaccumulation (“BIO.”) are taken up in the table below according to the following notation: […]

[2] = compulsory labelings R51/R53; cited from earlier work
[3] = Degreasing of steel sheets with an impregnated cotton pad; set-up: key to degreasing grade: Grade=1: visible residual presence of a thin greasy film; Grade=2: visible residual presence of small greasy spots; Grade=3: visible absence of fatty substance (degreased sheet); details: for OVERALL GRADE (/10): from the number of the 9 fatty substances with grade 3
Description: Steel sheets covered with a thin, uniform film of different greases, lubricants or straight cutting oils commonly used in the metal-processing industry are degreased.
The performances of these 7 compositions are compared for 9 commercial greases and oils of different chemical mixtures.
For the purpose of the evaluation, a cotton pad is impregnated with the test composition and then this cotton pad is brought into contact with a thin and uniform film of fatty substances deposited on the surface of a steel sheet. This operation is repeated twice. The steel sheet is subsequently rinsed with cold water, so as to remove the solvent. The degreasing effect is subsequently graded as follows:
Grade=1: visible residual presence of a thin greasy film,
Grade=2: visible residual presence of small greasy spots,
Grade=3: visible absence of fatty substance (degreased sheet).
For each of Compositions 1 to 7, an “overall grade” is assigned to the function of the number of fatty substances for which the composition in question has not made it possible to achieve the grade of 3. This overall grade, with a maximum value of 10, is assigned in the following way:
For each Composition 1 to 7, the grade obtained a) for the specific degreasing of each of the fatty substances FS1 to FS9 deposited (grade from 1 to 3) and b) overall, as degreasing composition (grades from 6/10 to 10/10) is thus taken up in the table below.

[4] = Flammability / flashpoint of the compositions; format: physicochemical
[5] = Aerobic inherent biodegradability, OECD 302 B (Zahn-Wellens EMPA Test); details: at 28 days
Description: The biodegradability is here measured according to the process, hereinafter denoted “OECD 302 B”, recommended by the OECD under the following number and following title: No. 302 B—Inherent Biodegradability: Zahn—Wellens EMPA Test.

[6] = tested on: aquatic organisms, such as bacteria, freshwater algae, daphnia and freshwater fish; test: Toxicity for aquatic organisms
[7] = tested on: man; details: previously described advantages; cited from earlier work
[8] = Ready biodegradability, OECD No. 301 A (DOC Die-away Test); details: at 28 days
[9] = FS 2 = mixture of petroleum mineral oils
[10] = FS 4 = molybdenum disulfide grease
[11] = FS 5 = mixture of mineral oil, of paraffinic hydrocarbons and of graphite
[12] = FS 6 = polydimethylsiloxane oil
[13] = FS 7 = mutifraction oily mixture
[14] = FS 8 = biostable polyvalent microemulsion
[15] = FS 9 = nonchlorinated special lubricant

Compound | BIO. (risks of harmfulness, protection of the aquatic environment/bioaccumulation) [1] | toxicity for the environment [2] | degreasing grade ([3]; FS 1 = paraffinic mineral oil) | degreasing grade [3, 9] | degreasing grade ([3]; FS 3 = food-grade mineral oil) | degreasing grade [3, 10] | degreasing grade [3, 11] | degreasing grade [3, 12] | degreasing grade [3, 13] | degreasing grade [3, 14] | degreasing grade [3, 15] | OVERALL GRADE (/10) [3] | flashpoint [4] [°C] | aerobic inherent biodegradability [5] [%] | toxicity for aquatic organisms [6] | irritant nature and toxicity to man [7] | ready biodegradability [8] [%]
2,2,4-trimethyl-1,3-pentanediol monoisobutyrate [Composition A] | − |  |  |  |  |  |  |  |  |  |  |  |  |  |  |  | 
ClC=C(Cl)Cl [Composition 1, trichloroethylene] |  | a certain toxicity | 3 | 3 | 3 | 3 | 3 | 3 | 3 | 3 | 3 | 10 /10 |  |  |  |  | 
ClCCl [Composition 2, dichloromethane] |  | a certain toxicity | 3 | 3 | 3 | 3 | 3 | 3 | 3 | 3 | 3 | 10 /10 |  |  |  |  | 
C=C(C)[C@H]1CC=C(C)CC1 [Composition 3, dipentene] |  |  | 3 | 3 | 3 | 3 | 3 | 3 | 3 | 2 | 3 | 9 /10 | 48 |  |  |  | 
CCOC(=O)C(C)O (stereo not shown) [Composition 4, ethyl lactate] |  |  | 3 | 3 | 3 | 3 | 2 | 3 | 3 | 2 | 3 | 8 /10 | 46 |  |  |  | 
CO[C@H]1CO[C@H]2[C@@H]1OC[C@H]2OC [Composition 5, dimethyl isosorbide] | ++ |  | 3 | 3 | 2 | 3 | 2 | 2 | 3 | 2 | 3 | 6 /10 | 120 | ~36 | absence of toxicity for aquatic organisms | absence of irritant nature and of toxicity to man | ~25
